# In patent publication US20240308994A1, “ISOXAZOLE DERIVATIVE OR PHARMACEUTICALLY ACCEPTABLE SALT THEREOF AND USE THEREOF” (INDUSTRY-UNIVERSITY COOPERATION FOUNDATION HANYANG …, priority 2021, published 2024):
# Where two headings read alike, the source gives them in different places.
# Experiments:
# FMS (h) = biological target: T1, FMS (h) (Homo sapiens, UniProt P07333); assay: Kinase HotSpot radiometric assay, activity on CSF-1R (FMS); format: biochemical
# T1 construct: purchased Reaction Biology Corp. (Kinase HotSpot service)
# metabolic stability (MS) = format: in vitro ADME
# CSF-1R = biological target: T2, CSF-1R (Homo sapiens, UniProt P07333); assay: protein kinase profile for 50 selected protein Kinase (FIG. 5), CSF-1R; format: biochemical; settings: single-dose concentration 1.0 μM
# T2 construct: purchased Reaction Biology Corp. (Kinase HotSpot service)
# CRaf = biological target: T3, CRaf (Homo sapiens, UniProt P04049); assay: protein kinase profile for 50 selected protein Kinase (FIG. 5), CRaf; format: biochemical; settings: single-dose concentration 1.0 μM
# T3 construct: purchased Reaction Biology Corp. (Kinase HotSpot service)
# BRafV600E = biological target: T4, BRafV600E (Homo sapiens, UniProt P15056, V600E); assay: protein kinase profile for 50 selected protein Kinase (FIG. 5), BRafV600E; format: biochemical; settings: single-dose concentration 1.0 μM
# T4 construct: purchased Reaction Biology Corp. (Kinase HotSpot service)
# Lyn = biological target: T5, Lyn (Homo sapiens, UniProt P07948); assay: protein kinase profile for 50 selected protein Kinase (FIG. 5), Lyn; format: biochemical; settings: single-dose concentration 1.0 μM
# T5 construct: purchased Reaction Biology Corp. (Kinase HotSpot service)
# PAMPA assay = format: in vitro ADME; settings: read-out: PAMPA assay Pe Avg
# plasma stability (PS) = format: in vitro ADME
# EMS and FLT3 = assay: Protein Kinase Profiling analysis, selectivity (FIG. 4); format: biochemical
# [1] = Table 3, read-out: IC50 (M) on FMS
# T1 sequence (P07333 20-972): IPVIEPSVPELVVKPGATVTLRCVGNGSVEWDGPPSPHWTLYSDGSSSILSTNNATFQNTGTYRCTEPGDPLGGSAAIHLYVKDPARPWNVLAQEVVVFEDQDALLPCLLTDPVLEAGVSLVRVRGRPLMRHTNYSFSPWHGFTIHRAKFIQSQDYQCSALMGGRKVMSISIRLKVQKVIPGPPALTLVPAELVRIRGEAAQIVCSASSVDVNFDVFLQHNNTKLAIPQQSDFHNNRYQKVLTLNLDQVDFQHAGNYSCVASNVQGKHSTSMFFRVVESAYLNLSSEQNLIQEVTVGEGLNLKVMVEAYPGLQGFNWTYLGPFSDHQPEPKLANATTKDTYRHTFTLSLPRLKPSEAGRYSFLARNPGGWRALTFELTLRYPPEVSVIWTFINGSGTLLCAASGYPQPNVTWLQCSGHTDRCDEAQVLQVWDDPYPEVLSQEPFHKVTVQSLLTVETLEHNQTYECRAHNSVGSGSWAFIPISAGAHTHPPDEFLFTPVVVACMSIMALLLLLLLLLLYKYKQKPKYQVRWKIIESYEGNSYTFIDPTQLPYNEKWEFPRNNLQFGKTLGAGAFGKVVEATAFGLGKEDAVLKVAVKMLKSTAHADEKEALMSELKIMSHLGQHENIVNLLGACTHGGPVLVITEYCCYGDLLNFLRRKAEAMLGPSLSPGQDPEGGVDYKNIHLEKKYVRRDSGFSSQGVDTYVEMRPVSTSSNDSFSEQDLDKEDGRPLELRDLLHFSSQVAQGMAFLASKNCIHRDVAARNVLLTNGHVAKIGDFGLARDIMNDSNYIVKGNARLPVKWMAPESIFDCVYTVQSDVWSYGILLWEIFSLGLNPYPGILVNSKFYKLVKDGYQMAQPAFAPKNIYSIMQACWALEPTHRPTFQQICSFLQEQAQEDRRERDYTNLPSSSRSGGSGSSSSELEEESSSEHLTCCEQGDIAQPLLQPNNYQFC
# T2 sequence (P07333 20-972): as above
# T5 sequence (P07948 whole entry): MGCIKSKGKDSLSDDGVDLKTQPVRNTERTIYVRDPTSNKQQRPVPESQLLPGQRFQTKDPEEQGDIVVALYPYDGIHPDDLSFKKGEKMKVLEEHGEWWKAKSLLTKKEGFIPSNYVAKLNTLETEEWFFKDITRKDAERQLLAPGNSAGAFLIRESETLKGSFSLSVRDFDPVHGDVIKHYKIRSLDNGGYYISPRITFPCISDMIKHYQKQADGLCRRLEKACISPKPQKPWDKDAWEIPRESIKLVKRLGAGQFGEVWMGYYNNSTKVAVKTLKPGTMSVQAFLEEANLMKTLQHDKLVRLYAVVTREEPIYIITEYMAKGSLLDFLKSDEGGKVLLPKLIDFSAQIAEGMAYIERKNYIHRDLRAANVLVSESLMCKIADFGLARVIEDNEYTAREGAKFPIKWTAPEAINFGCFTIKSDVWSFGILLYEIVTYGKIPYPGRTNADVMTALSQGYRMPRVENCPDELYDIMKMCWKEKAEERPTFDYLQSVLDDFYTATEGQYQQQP
# T4 sequence (P15056 416-766 V600E limits assumed): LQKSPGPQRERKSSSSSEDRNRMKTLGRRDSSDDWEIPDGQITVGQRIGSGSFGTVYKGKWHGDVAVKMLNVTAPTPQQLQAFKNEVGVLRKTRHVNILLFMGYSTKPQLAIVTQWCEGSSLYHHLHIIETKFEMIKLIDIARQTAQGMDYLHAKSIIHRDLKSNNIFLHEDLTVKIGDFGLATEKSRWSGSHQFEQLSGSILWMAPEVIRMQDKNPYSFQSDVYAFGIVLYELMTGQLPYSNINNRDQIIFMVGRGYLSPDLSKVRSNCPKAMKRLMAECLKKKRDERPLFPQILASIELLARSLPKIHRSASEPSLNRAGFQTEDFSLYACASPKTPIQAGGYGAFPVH
# T3 sequence (P04049 whole entry): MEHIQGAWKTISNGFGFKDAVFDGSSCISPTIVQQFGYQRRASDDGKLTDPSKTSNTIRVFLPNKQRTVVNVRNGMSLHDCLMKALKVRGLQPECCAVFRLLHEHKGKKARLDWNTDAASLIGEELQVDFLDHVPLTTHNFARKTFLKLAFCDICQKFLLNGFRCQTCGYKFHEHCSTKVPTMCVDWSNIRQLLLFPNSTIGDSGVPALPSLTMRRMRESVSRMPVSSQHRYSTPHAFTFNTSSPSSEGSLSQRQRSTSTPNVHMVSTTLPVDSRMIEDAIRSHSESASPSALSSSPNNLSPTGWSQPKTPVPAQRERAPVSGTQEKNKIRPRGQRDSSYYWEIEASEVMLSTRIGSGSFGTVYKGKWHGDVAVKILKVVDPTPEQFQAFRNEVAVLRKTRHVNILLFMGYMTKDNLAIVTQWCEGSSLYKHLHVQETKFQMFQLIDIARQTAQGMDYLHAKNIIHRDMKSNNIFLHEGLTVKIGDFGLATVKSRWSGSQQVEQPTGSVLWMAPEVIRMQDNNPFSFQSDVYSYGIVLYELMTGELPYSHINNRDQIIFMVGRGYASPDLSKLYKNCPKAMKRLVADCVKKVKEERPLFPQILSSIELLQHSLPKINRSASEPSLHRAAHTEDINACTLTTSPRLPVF
SMILES,IC50 (FMS (h); [1]) [M],"IC50 (FMS (h); Table 2, read-out: IC50 (μm)) [M]",further results
"Cc1ccc(NC(=O)c2cc(N3CCN(C)CC3)cc(C(F)(F)F)c2)cc1NC(=O)c1cnoc1C [Comparative example 1, reference compound]",,,"IC50 (FMS (h); Table 5, read-out: IC50 on CSF-1R): 1.03e-08 M; MS (human) %@60 min (metabolic stability (MS)): <10%; inhibitory activity against CSF-1R (CSF-1R): inhibitory activity; inhibitory activity against CRaf (CRaf): inhibitory activity; inhibitory activity against BRafV600E (BRafV600E): inhibitory activity; inhibitory activity against Lyn (Lyn): inhibitory activity"
"Cc1cc(C(=O)Nc2cc(NC(=O)c3cc(N4CCN(C)CC4)cc(C(F)(F)F)c3)ccc2C)no1 [Compound 5a, 5-methyl-N-(2-methyl-5-(3-(4-methylpiperazin-1-yl)-5-(trifluoromethyl)benzamido)phenyl)isoxazole-3-carboxamide]",,,Papp (PAMPA assay): 55.5 ×10⁻⁶ cm/s; PS (human) @30 min (plasma stability (PS); 30 min): > 100%; PS (human) @60 min (plasma stability (PS); 60 min): > 100%
"Cc1cc(C(=O)Nc2ccc(C3CCC[N+](C)(C)CC3)cc2C2=CCC(C)(C)CC2)no1 (centres unmarked) [Compound 80c, 4-(4′,4′-dimethyl-6-(5-methylisoxazole-3-carboxamido)-2′,3′,4′,5′-tetrahydro-[1,1′-biphenyl]-3-yl)-1,1-dimethylazepan-1-ium]",< 1e-07,,
"Cc1cc(C(=O)Nc2ccc(C3CC[N+](C)(C)CC3)cc2C2CCCCC2)no1 [Compound 81b, 4-(3-cyclohexyl-4-(5-methylisoxazole-3-carboxamido)phenyl)-1,1-dimethylpiperidin-1-ium]",1e-07 to 1e-06,,
"CC[N+]1(CC)CCC(c2ccc(NC(=O)c3cc(C)on3)c(C3=CCCCC3)c2)CC1 [Compound 82b, 1,1-diethyl-4-(6-(5-methylisoxazole-3-carboxamido)-2′,3′,4′,5′-tetrahydro-[1,1′-biphenyl]-3-yl)piperidin-1-ium]",< 1e-07,,
"Cc1cc(C(=O)Nc2ccc(C3CC(C)(C)NC(C)(C)C3)cc2C2=CCC(C)(C)CC2)no1 [Compound 92c, N-(4′,4′-dimethyl-5-(2,2,6,6-tetramethylpiperidin-4-yl)-2,3′,4′,5′-tetrahydro-[1,1′-biphenyl]-2-yl)-5-methylisoxazole-3-carboxamide]",< 1e-07,< 1e-07,
"Cc1cc(C(=O)Nc2ccc(C3CC(C)(C)NC(C)(C)C3)cc2C2=CCCCCC2)no1 [Compound 92d, N-(2-(cyclohept-1-en-1-yl)-4-(2,2,6,6-tetramethylpiperidin-4-yl)phenyl)-5-methylisoxazole-3-carboxamide]",1e-07 to 1e-06,1e-07 to 1e-06,

# Now from value to molecule, other results behind:
IC50 (FMS (h); [1]) [M],"IC50 (FMS (h); Table 2, read-out: IC50 (μm)) [M]",SMILES,further results
1e-07 to 1e-06,,"CC(=O)N1CCC(c2ccc(NC(=O)c3cc(C)on3)c(C3=CCCCC3)c2)CC1 [Compound 83b, N-(5-(1-acetylpiperidin-4-yl)-2′,3′,4′,5′-tetrahydro-[1,1′-biphenyl]-2-yl)-5-methylisoxazole-3-carboxamide]",
1e-07 to 1e-06,,"Cc1cc(C(=O)Nc2ccc(C3CCN(C(=O)CN(C)C)CC3)cc2C2=CCCCC2)no1 [Compound 84b, N-(5-(1-(dimethylglycyl)piperidin-4-yl)-2′,3′,4′,5′-tetrahydro-[1,1′-biphenyl]-2-yl)-5-methylisoxazole-3-carboxamide]",
< 1e-07,1e-07 to 1e-06,"Cc1cc(C(=O)Nc2ccc(C3CC(C)(C)NC(C)(C)C3)cc2C2=CCCCC2)no1 [Compound 92a, 5-methyl-N-(5-(2,2,6,6-tetramethylpiperidin-4-yl)-2′,3′,4′,5′-tetrahydro-[1,1′-biphenyl]-2-yl)isoxazole-3-carboxamide]",
< 1e-07,< 1e-07,"Cc1cc(C(=O)Nc2ccc(C3CC(C)(C)NC(C)(C)C3)cc2C2=CCC(C)CC2)no1 (centres unmarked) [Compound 92b, 5-methyl-N-(4′-methyl-5-(2,2,6,6-tetramethylpiperidin-4-yl)-2′,3′,4,5′-tetrahydro-[1,1′-biphenyl]-2-yl)isoxazole-3-carboxamide]",kinase selectivity of EMS and FLT3 (EMS and FLT3): high selectivity
